In one data set the test system is Kuramochi. Briefly: cells. In kind it is cell-based. The conditions noted are these: Homo sapiens, 72 h, read-out: Cytotoxicity LC50 Kuramochi. Here is the method:
(§1) Following their identification, compounds 1–5 were assessed for cytotoxicity in two high-grade ovarian cancer cell lines, OVCAR4 and Kuramochi. Potential for selective cytotoxicity was evaluated using two non-cancerous mouse cell lines representing the putative progenitor cells of ovarian cancer, murine ovarian surface epithelial (MOSE) and murine oviductal epithelial (MOE). […] Generally speaking, this para-quinone scaffold is not an attractive lead, as higher toxicity in non-tumorigenic cell lines confers serious overall toxicity.
(§2) Human ovarian OVCAR4 and Kuramochi cancer cells were maintained in RPMI 1640 (11875-093, Life-technologies; Carlsbad, CA, USA) supplemented with 10% FBS (16000-044, Life-technologies; Carlsbad, CA, USA) and 1% penicillin/streptomycin. Non-cancerous murine ovarian surface epithelium (MOSE) and murine oviductal epithelium (MOE) cells were maintained as previously reported. Concentration-response experiments were performed as previously described for 72 h.

Another data set has as its system OVCAR4. Briefly: cells. The format is cell-based. The following applies: Homo sapiens, OVCAR-4, 72 h, read-out: Cytotoxicity LC50 OVCAR4. Here is the method: as §1, §2
The subject of data set [1] is M. tuberculosis H37Rv ATCC 27294. Briefly: Microplate alamar blue assay (MABA), replicating M. tuberculosis. The format is cell-based. The conditions noted are these: for MIC: Mycobacterium tuberculosis, MIC = lowest concentration giving ≥90% growth inhibition, averaged from triplicates. Background: The colour change of resazurin is a common sign of viable cells or microbes.

For data set [2] the test system is unchanged. Briefly: Low oxygen recovery assay (LORA), non-replicating M. tuberculosis. The format is cell-based. The conditions noted are these: Mycobacterium tuberculosis.
For data set [3], the system named is OVCAR4, Kuramochi, MOSE and MOE cell lines. Briefly: Cytotoxicity panel of cancerous and non-cancerous cell lines (overall statements, selectivity). The conditions noted are these: for Cytotoxicity in the cell line panel (in words): OVCAR4, Kuramochi, MOSE, MOE. The format is cell-based. Here is the method: as §1, §2
The test system of data set [4] is panel of Gram-negative and Gram-positive bacteria. The arrangement: method as in PMID 2925509. The conditions noted are these: cited from earlier work.
In data set [5] the test system is wide range of cancer cell lines. The following applies: previous reports; cited from earlier work.
The subject of data set [6] is L1210 lymphocytic leukemia cells. The arrangement: method as in PMID 11395569. The following applies: L1210 lymphocytic leukemia cells in vitro; read-out: IC50 range, inhibition of tumor cell proliferation and viability; cited from earlier work.
In the next data set the test system is Eimeria tenella. The arrangement: method as in PMID 7451359, PMID 7451360. The following applies: apicomplexan poultry parasite Eimeria tenella; cited from earlier work.
Data set [7] has as its system two fungal species, a human parasite, and several Gram-negative and Gram-positive bacteria. The arrangement: method as in PMID 7451359, PMID 7451360. The following applies: cited from earlier work.

In brackets after ≈: the same amount, converted by molar mass.

For the molecule `Cc1cc(O)c2c(c1)COC1=C2C(=O)c2cccc(O)c2C1=O` [Compound 2, lagumycin B], the CC50 in the data set on Kuramochi and with OVCAR4 was above 32.5 µM in each case. The results for the MIC in data set [1] and in [2] were 2.01 µg/mL (≈ 6.52 µM) and 25.7 µg/mL (≈ 83.4 µM), respectively.
Consider `COc1cccc2c1C(=O)c1c(O)c3c(c(O)c1C2=O)C[C@@](O)(C(=O)CO)C[C@@H]3O[C@H]1C[C@H](N)[C@H](O)[C@H](C)O1` [Doxorubicin, reference compound], for which the CC50 in the data set on Kuramochi and in the data set with OVCAR4 was below 0.078 µM in each case.
`Cc1cc(O)c2c3c(c(O)cc2c1)C(=O)c1c(O)cccc1C3=O` [Compound 3, dehydrorabelomycin]: the CC50 in the data set with Kuramochi amounted to 6.72 µM; in the data set with OVCAR4, 11 µM. Moreover, the MIC was 1.01 µg/mL (≈ 3.15 µM) in [1] and 19.6 µg/mL (≈ 61.2 µM) in data set [2]. In addition, in [3], the “Cytotoxicity in the cell line panel (in words)” value (“Cytotoxicity” for short) was “non-specifically cytotoxic”. For the same molecule, the “Antibacterial activity (in words)” value in data set [4] is on record as “no detectable activity”. Moreover, the “Inhibition of cancer cell lines (in words)” value in data set [5] is “inhibited a wide range of cancer cell lines at micromolar potency”.
Turning to `COc1cc(C)cc2c(=O)oc3c(c12)C(=O)c1cccc(O)c1C3=O` [Compound 5, WS-5995 A], the CC50 was determined as 18.6 µM in the data set on Kuramochi and 127 µM in the data set on OVCAR4. The “Activity in MABA (in words)” value in data set [1] is “lacked significant activity”. Also, the MIC was 22.7 µg/mL (≈ 67.5 µM) in data set [1] and above 50 µg/mL in data set [2]. Also, the “Greater activity toward Kuramochi ovarian cancer cells” value in [3] (Kuramochi versus the other cell lines of the panel) is reported as “approximately seven-fold”. For the same molecule, the “Cytotoxicity” value in [3] was “enhanced cytotoxicity against the Kuramochi cell line when compared to non-tumorigenic cell lines”. Further, in data set [6], the IC50 is 0.24 to 0.65 µM. The “Anticoccidial activity (in words)” value in the data set on Eimeria tenella was “anticoccidial activity”. Further, the “Biological activity against antimicrobial panel (in words)” value in data set [7] is on record as “no significant biological activity”.
Turning to `C=C[C@@]1(C)CCC2=C(CC[C@H]3C(C)(C)[C@@H](O)C(=O)C[C@]23C)C1` [Compound 1, isopimara-2-one-3-ol-8,15-diene], the CC50 with Kuramochi and in the data set on OVCAR4 was above 33.1 µM each time. For the same molecule, the “Activity in MABA (in words)” value in data set [1] is given as “lacked significant activity”. The figures for the MIC in [1] and in data set [2] were 19.4 µg/mL (≈ 64.1 µM) and above 50 µg/mL, respectively. Moreover, in [3], the “Cytotoxicity” value was “not significantly active”.
With `Cc1cc(O)c2c3c(ncc2c1)C(=O)c1c(O)cccc1C3=O` [Compound 4, phenanthroviridone], the CC50 was determined as 1.11 µM in the data set on Kuramochi and 4.82 µM in the data set on OVCAR4. For the same molecule, the MIC was 0.72 µg/mL (≈ 2.36 µM) in data set [1] and 17.8 µg/mL (≈ 58.3 µM) in data set [2]. Besides, the “Cytotoxicity” value in data set [3] was “non-specifically cytotoxic”.

One may read the MIC as the least concentration at which growth counts as inhibited.

The record behind these values is article PMC4584356, “A Pimarane Diterpene and Cytotoxic Angucyclines from a Marine-Derived Micromonospora sp. in Vietnam’s East Sea” (Marine Drugs, 2015).
